Data published in article PMC6271935, “Synthesis and Broad-Spectrum Antiviral Activity of Some Novel Benzo-Heterocyclic Amine Compounds” (Molecules, 2014).

Tests used:
HepG2.2.15 cells = experiment: Cytotoxicity in HepG2.2.15 cells (CPE); type: cell-based, human; conditions: 3 + 3 days
Method: Cells were cultured for 3 days at 37 °C in a 5% CO2 atmosphere in an incubator, and the medium was replaced with fresh medium containing the test compounds for an additional 3 days. The cells were subsequently monitored by CPE and the TC50 value was calculated using Reed and Muench analysis.

HBV = experiment: Anti-HBV assay in HepG2.2.15 cells, viral DNA by real time PCR; type: cell-based, Hepatitis B virus; conditions: for IC50: Hepatitis B virus, HepG2.2.15, 144 h, intracellular viral DNA, 3 + 3 days
Method: The synthesized target compounds were assayed for their broad spectrum antiviral activity towards influenza A, HBV, HCV and Cox B3 virus in vitro. […] The inhibitory activities towards HBV and HCV were tested by real time PCR, and lamivudine (3TC) and teleprevir were used as positive controls, respectively.
The anti-HBV activities of test compounds and a positive control drug were tested in HepG2.2.15 cells. The HepG2.2.15 cells were cultured in 96-well plates and treated with the test compounds at 37 °C for 3 days. The medium was removed, and fresh medium containing the test compounds was added for an additional 3 days. The cells were harvested and intracellular DNA was extracted. The inhibition of viral DNA replication in treated cells versus untreated cells was determined by real time PCR.

MDCK cells = experiment: Cytotoxicity in MDCK cells (CPE); type: cell-based, Canine; conditions: 48 h, Reed & Muench
Method: (§1) The cytotoxicity of the compounds in MDCK, Vero and HepG2.2.15 cells was monitored via cytopathic effect (CPE) assays. The MDCK and Vero cells (2.5 × 10^4 /well) were plated in a 96-well plate. Following a 24 h hold period, the monolayer of cells was incubated in the presence of various concentrations of the test compounds. […] The TC50 value was calculated using Reed & Muench analysis.

Huh7.5 cells = experiment: Cytotoxicity in Huh7.5 cells (MTT); type: cell-based, human; conditions: 96 h
Method: The Huh7.5 cells (1 × 10^4 cells/well) were plated in 96-well plates. Six hours later the culture media was replaced with fresh medium containing the test compounds at various concentrations. Cytotoxicity was evaluated with the 3-(4,5-dimethylthiazol-2-yl)-2,5-diphenyltetrazolium bromide (MTT) assay after 96 h.
Huh7.5 cells were seeded at a density of 3 × 10^4 cells/cm^2. After 24 h of incubation, the cells were infected with an HCV viral stock (approximately 45 IU per cell) and simultaneously treated with Telaprevir, the test compounds, or the solvent control. The culture medium was removed 96 h after inoculation, and the total intracellular RNA and total intracellular proteins were extracted with a Qiagen Kit according to the manufacturer’s instructions. Intracellular HCV RNA was quantified using a one-step real time RT-PCR kit (Invitrogen). Cytotoxicity was tested by the MTT assay, and IC50 values were calculated by the Reed and Muench methods.

Cox B3 = experiment: organism not typed; type: cell-based, Coxsackie viruses (Cox B3 Nancy strain); conditions: for IC50: Vero
HCV = experiment: Anti-HCV assay in Huh7.5 cells, intracellular HCV RNA by real time RT-PCR; type: cell-based; conditions: Hepatitis C virus, 96 h
Vero cells = experiment: Cytotoxicity in Vero cells (CPE); conditions: 48 h, Reed & Muench
Method: as §1

[1] = tested on: Influenza A/hanfang/359/95; experiment: microbe, parasite or virus in culture; type: cell-based; conditions: for IC50: Influenza A virus, MDCK

Compound: Nc1ccn([C@@H]2CS[C@H](CO)O2)c(=O)n1 [3TC, lamivudine, reference compound]
- TC50 (50% cytotoxic concentration), HBV (HepG2.2.15 cells): >100 µM
- IC50 (HBV): 1.85 µM

Compound: Cc1ccc(CNc2ccc3cc[nH]c3c2)o1 [1c, (1H-Indol-6-yl)-(5-methylfuran-2-ylmethyl)-amine]
- TC50 (50% cytotoxic concentration), Influenza A/hanfang/359/95 (MDCK cells): 4.52 µM
- TC50 (50% cytotoxic concentration), HCV (Huh7.5 cells): 46.78 µM
- IC50 (Cox B3): 1.93 µM
- TC50 (50% cytotoxic concentration), HBV (HepG2.2.15 cells): 16.67 µM
- IC50 (HCV): 2.77 µM
- TC50 (50% cytotoxic concentration), Cox B3 (Vero cells): 25.15 µM
- melting point: 100 to 102 °C
- anti-HBV activity (in words) (HBV): complete loss of antiviral activity
- IC50 (HBV): > 5.56 µM
- IC50 [1]: > 0.66 µM

Compound: c1cnc2c(CNc3ccc4ncoc4c3)cccc2c1 [2g, Benzooxazol-6-yl-quinolin-8-ylmethylamine]
- TC50 (50% cytotoxic concentration), Influenza A/hanfang/359/95 (MDCK cells): 56.04 µM
- TC50 (50% cytotoxic concentration), HCV (Huh7.5 cells): 27.57 µM
- IC50 (Cox B3): 8.98 µM
- IC50 (HCV): 14.2 µM
- TC50 (50% cytotoxic concentration), Cox B3 (Vero cells): 80.80 µM
- melting point: 98 to 100 °C
- IC50 [1]: 9.04 µM

Compound: COc1cc(CNc2ccc3ncoc3c2)cc(Br)c1O [2a, 4-(Benzooxazol-6-ylaminomethyl)-2-bromo-6-methoxyphenol]
- TC50 (50% cytotoxic concentration), Influenza A/hanfang/359/95 (MDCK cells): 64.04 µM
- TC50 (50% cytotoxic concentration), HCV (Huh7.5 cells): 89.63 µM
- IC50 (Cox B3): 3.52 µM
- TC50 (50% cytotoxic concentration), HBV (HepG2.2.15 cells): 28.87 µM
- IC50 (HCV): 33 µM
- TC50 (50% cytotoxic concentration), Cox B3 (Vero cells): 55.13 µM
- melting point: 129 to 131 °C
- IC50 (HBV): > 16.7 µM
- IC50 [1]: > 10.6 µM

Compound: Clc1ccc(CNc2ccc3ncoc3c2)s1 [2e, Benzooxazol-6-yl-(5-chlorothiophen-2-ylmethyl)-amine]
- TC50 (50% cytotoxic concentration), Influenza A/hanfang/359/95 (MDCK cells): 87.30 µM
- TC50 (50% cytotoxic concentration), HCV (Huh7.5 cells): 45.78 µM
- IC50 (Cox B3): 3.55 µM
- TC50 (50% cytotoxic concentration), HBV (HepG2.2.15 cells): 19.25 µM
- IC50 (HCV): 17.7 µM
- TC50 (50% cytotoxic concentration), Cox B3 (Vero cells): 29.08 µM
- melting point: 100 to 102 °C
- IC50 (HBV): > 11.1 µM
- IC50 [1]: 11 µM

Compound: CCOC(=O)C1=C[C@@H](OC(CC)CC)[C@H](NC(C)=O)[C@@H](N)C1 [Oseltamivir, oseltamivir, reference compound]
- TC50 (50% cytotoxic concentration), Influenza A/hanfang/359/95 (MDCK cells): 4030.42 µM
- IC50 [1]: 19 µM

Compound: c1ccc2c(CNc3ccc4ncsc4c3)c3ccccc3cc2c1 [3k, Anthracen-9-ylmethyl-benzothiazol-6-yl-amine]
- TC50 (50% cytotoxic concentration), Influenza A/hanfang/359/95 (MDCK cells): 1.73 µM
- inhibitory activity towards Cox B3 (in words) (Cox B3; Vero cells, CPE): no inhibitory activity
- TC50 (50% cytotoxic concentration), Cox B3 (Vero cells): 2.09 µM
- melting point: 174 to 176 °C
- IC50 [1]: > 0.41 µM
- anti-influenza A activity (in words) ([1]; MDCK cells, CPE): complete loss in activity

Compound: CCC[C@H](NC(=O)[C@@H]1[C@H]2CCC[C@H]2CN1C(=O)[C@@H](NC(=O)[C@@H](NC(=O)c1cnccn1)C1CCCCC1)C(C)(C)C)C(=O)C(=O)NC1CC1 [Telaprevir, telaprevir, reference compound]
- TC50 (50% cytotoxic concentration), HCV (Huh7.5 cells): 32.12 µM
- IC50 (HCV): 0.011 µM

Compound: COc1cc(CNc2ccc3ncsc3c2)cc(Br)c1O [3a, 4-(Benzothiazol-6-ylaminomethyl)-2-bromo-6-methoxyphenol]
- TC50 (50% cytotoxic concentration), Influenza A/hanfang/359/95 (MDCK cells): 21.08 µM
- TC50 (50% cytotoxic concentration), HCV (Huh7.5 cells): 108.82 µM
- IC50 (Cox B3): 10.1 µM
- TC50 (50% cytotoxic concentration), HBV (HepG2.2.15 cells): 28.87 µM
- IC50 (HCV): 49 µM
- TC50 (50% cytotoxic concentration), Cox B3 (Vero cells): 21.08 µM
- melting point: 193 to 195 °C
- IC50 (HBV): > 16.7 µM
- IC50 [1]: > 10.1 µM

Compound: c1ncc(CNc2ccc3ncoc3c2)cn1 [2f, Benzooxazol-6-yl-pyrimidin-5-ylmethyl-amine]
- TC50 (50% cytotoxic concentration), Influenza A/hanfang/359/95 (MDCK cells): 425.44 µM
- IC50 (Cox B3): 56.7 µM
- TC50 (50% cytotoxic concentration), Cox B3 (Vero cells): 295.10 µM
- melting point: 175 to 177 °C
- IC50 [1]: > 98.3 µM

Compound: NC(=O)c1ncn([C@@H]2O[C@H](CO)[C@@H](O)[C@H]2O)n1 [RBV, ribavirin, reference compound]
- IC50 (Cox B3): 2120 µM
- IC50 [1]: 8.76 µM
